For 16 compounds, Kd and IC50 results are on record in patent publication US20120129811A1, “TRICYCLIC INHIBITORS OF PRO-MATRIX METALLOPROTEINASE ACTIVATION” (priority 2010, published 2012).

Usually Kd stands for the free concentration of one partner at which half of the binding sites on the other are occupied at equilibrium, for simple one-to-one binding. Low readings indicate a tighter complex, high ones a looser complex. Broadly, the IC50 is the concentration that inhibits the measured activity by half. Higher therefore signals weaker potency.

The target of assay [1] is T1, proMMP13(1-268) (SEQ ID NO:7) (Homo sapiens, UniProt P45452).
T1 construct: 6xHis (C); made in house; host or cells: HEK293 (transient, secreted)
Kind of assay: ThermoFluor binding assay with proMMP13(1-268). As for the experimental part:
The ThermoFluor® (TF) assay is a 384-well plate-based binding assay that measures thermal stability of proteins (Biomol Screen 2001, 6, 429-40; Biochemistry 2005, 44, 5258-66). The experiments were carried out using instruments available from Johnson & Johnson Pharmaceutical Research & Development, LLC. TF dye used in all experiments was […] (1,8-ANS) (Invitrogen: A-47).
Compounds were arranged in a pre-dispensed plate (Greiner Bio-one: 781280), wherein compounds were serially diluted in 100% DMSO across 11 columns within a series. Columns 12 and 24 were used as DMSO reference and contained no compound. For multiple compound concentration-response experiments, the compound aliquots (50 nL) were robotically predispensed directly into black 384-well polypropylene PCR microplates (Abgene: TF-0384/k) using a Cartesian Hummingbird liquid handler (DigiLab, Holliston, Mass.). Following compound dispense, protein and dye solutions were added to achieve the final assay volume of 3 μL. The assay solutions were overlayed with 1 μL of silicone oil (Fluka, type DC 200: 85411) to prevent evaporation.
Assay plates were robotically loaded onto a thermostatically controlled PCR-type thermal block and then heated from 40 to 90° C. at a ramp-rate of 1° C./min for all experiments. Fluorescence was measured by continuous illumination with UV light (Hamamatsu LC6) supplied via fiber optics and filtered through a band-pass filter (380-400 nm; >60D cutoff). Fluorescence emission of the entire 384-well plate was detected by measuring light intensity using a CCD camera (Sensys, Roper Scientific) filtered to detect 500±25 nm, resulting in simultaneous and independent readings of all 384 wells. A single image with 20-sec exposure time was collected at each temperature, and the sum of the pixel intensity in a given area of the assay plate was recorded vs temperature and fit to standard equations to yield the Tm (J Biomol Screen 2001, 6, 429-40).
Thermodynamic parameters necessary for fitting compound binding for each proMMP were estimated by differential scanning calorimetry (DSC) and from ThermoFluor® data. The heat capacity of unfolding for each protein was estimated from the molecular weight and from ThermoFluor® dosing data.
ThermoFluor® with proMMP13(1-268) (SEQ ID NO: 7)
The proMMP13(1-268) (SEQ ID NO:7) protein sample preparations included a desalting buffer exchange step via a PD-10 gravity column (GE Healthcare). The desalting buffer exchange was performed prior to diluting the protein to the final assay concentration of 3.5 μM. The concentration of proMMP13(1-268) (SEQ ID NO:7) was estimated spectrophotometrically based on a calculated extinction coefficient of ε280=37000 M^−1 cm^−1, a calculated molecular weight of 30.8 kDa, and calculated pI of 5.33. ThermoFluor® reference conditions were defined as follows: 100 μg/mL proMMP13(1-268) (SEQ ID NO:7), 25 μM 1,8-ANS, pH 7.0 Buffer (50 mM HEPES pH 7.0, 100 mM NaCl, 0.001% Tween-20, 2.5 mM MgCl2, 300 μM CaCl2). The thermodynamic parameters for proMMP13(1-268) (SEQ ID NO:7) are as follows: Tm (° C.)=67 (+/−0.1), ΔUH(Tm)) (cal mol^−1)=107000(+/−5000), ΔUSTm (cal mol^−1 K^−1)=318, ΔUCp (cal mol^−1 K^−1)=2600.
Background: Differential scanning fluorimetry follows unfolding on heating by fluorescence.

Assay [2] addresses T2, full-length proMMP9(1-707) activation by catalytic MMP3 (Homo sapiens, UniProt P14780, R574P).
T2 construct: made in house; host or cells: proMMP9: HEK293 (secreted); MMP3: E. coli
As to the kind of experiment: proMMP9/MMP3 P126 Activation Assay. In kind it is biochemical. The procedure:
proMMP9/MMP3 P126 Activation Assay
The reaction volume was 50 μL. […] Reactivity of residual MMP3 towards P-126 substrate was minimal under these conditions.

Assay [3] addresses T3, proMMP9(67-444;ΔFnII) (SEQ ID NO:5) (Homo sapiens, UniProt P14780, DEL216-390).
T3 construct: start methionine (N); made in house; host or cells: E. coli BL21(DE3) RIL
T3 sequence (P14780 with tags, fused parts or gaps DEL216-390): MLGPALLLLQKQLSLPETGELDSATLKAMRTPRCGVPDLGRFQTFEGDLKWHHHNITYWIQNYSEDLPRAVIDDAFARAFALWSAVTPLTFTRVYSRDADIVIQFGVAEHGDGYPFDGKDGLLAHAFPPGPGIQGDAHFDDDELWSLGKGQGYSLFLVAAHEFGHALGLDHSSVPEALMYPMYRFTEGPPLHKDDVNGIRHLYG
Kind of assay: ThermoFluor binding assay with proMMP9(67-444;ΔFnII). The method, boiled down: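 Thermal shift of 3.5 μM proMMP9(67-444;ΔFnII), desalted beforehand, with 50 μM 1,8-ANS in 50 mM HEPES pH 7.0, 100 mM NaCl, 2.5 mM MgCl2, 300 μM CaCl2, 0.001% Tween-20. Heated 40–90 °C at 1 °C/min, fluorescence read at 500 nm; binding fitted from Tm shifts using DSC- and ThermoFluor-derived unfolding parameters.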

Assay [4] concerns the target T4, proMMP9(20-445;ΔFnII) (SEQ ID NO:6) (Homo sapiens, UniProt P14780, DEL216-390).
T4 construct: start methionine (N); made in house; host or cells: E. coli BL21(DE3) RIL
T4 sequence (P14780 with tags, fused parts or gaps DEL216-390): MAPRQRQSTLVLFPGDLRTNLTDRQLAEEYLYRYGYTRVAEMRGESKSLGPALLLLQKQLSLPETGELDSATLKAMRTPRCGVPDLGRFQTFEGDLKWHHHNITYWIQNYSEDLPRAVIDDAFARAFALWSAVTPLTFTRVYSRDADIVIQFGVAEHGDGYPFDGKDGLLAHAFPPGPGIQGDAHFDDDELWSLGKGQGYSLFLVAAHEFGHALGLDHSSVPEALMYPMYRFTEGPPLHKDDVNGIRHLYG
Kind of assay: ThermoFluor binding assay with proMMP9(20-445;ΔFnII). The essentials:
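Protein thermal stability was measured with 2.8 μM proMMP9(20-445;ΔFnII) and 50 μM 1,8-ANS in 50 mM HEPES pH 7.0, 100 mM NaCl, 0.001% Tween-20, 2.5 mM MgCl2, 300 μM CaCl2, across serial compound dilutions. Samples were heated 40–90° C at 1° C/min with fluorescence read at 500 nm. Tm was fitted, and binding was derived from thermodynamic parameters obtained by DSC and ThermoFluor.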

Counter-ions that a name gives are not always drawn. Some results are limits rather than exact numbers.

T2 sequence (P14780 20-707 R574P): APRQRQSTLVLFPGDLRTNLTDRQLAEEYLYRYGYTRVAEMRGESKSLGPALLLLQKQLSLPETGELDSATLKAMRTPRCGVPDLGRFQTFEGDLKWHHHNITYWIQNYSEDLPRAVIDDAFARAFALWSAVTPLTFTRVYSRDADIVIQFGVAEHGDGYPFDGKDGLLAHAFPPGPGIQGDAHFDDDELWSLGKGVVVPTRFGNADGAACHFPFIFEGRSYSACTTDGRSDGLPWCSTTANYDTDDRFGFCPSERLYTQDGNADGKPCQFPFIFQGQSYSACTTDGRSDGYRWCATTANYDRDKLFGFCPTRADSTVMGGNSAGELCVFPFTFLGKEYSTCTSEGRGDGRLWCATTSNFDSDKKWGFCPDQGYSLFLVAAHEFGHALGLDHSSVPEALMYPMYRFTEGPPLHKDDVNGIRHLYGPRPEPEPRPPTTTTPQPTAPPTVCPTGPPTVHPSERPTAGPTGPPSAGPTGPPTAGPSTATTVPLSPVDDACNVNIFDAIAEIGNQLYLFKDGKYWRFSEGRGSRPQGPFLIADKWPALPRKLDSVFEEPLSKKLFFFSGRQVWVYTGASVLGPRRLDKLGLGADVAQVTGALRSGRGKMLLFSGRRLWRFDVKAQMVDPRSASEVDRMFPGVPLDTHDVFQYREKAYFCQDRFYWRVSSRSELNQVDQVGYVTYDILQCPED

Consider `Cn1cnc2c3nc(Nc4ccccc4OCC(F)(F)F)sc3ccc21` [Example 43, (6-Methyl-6H-imidazo[4′,5′:3,4]-benzo[2,1-d]thiazol-2-yl)-[2-(2,2,2-trifluoro-ethoxy)-phenyl]-amine.HCl], for which the Kd was above 95000 nM in assay [1], 2800 nM in assay [3] and 17000 nM in assay [4]. The same compound had an IC50 in assay [2] of 2500 nM.
As for `COc1ccc(Cl)cc1Nc1nc2c(ccc3c2ncn3C)s1` [Example 40, (5-Chloro-2-methoxy-phenyl)-(6-methyl-6H-imidazo[4′,5′:3,4]benzo[2,1-d]thiazol-2-yl)-amine.HCl], the figures for the dissociation constant Kd in assay [1], in assay [3] and in assay [4] were 1600 nM, 100 nM and 830 nM, respectively. The IC50 in assay [2] turned out to be 170 nM.
For the compound `COc1ccc(OC)c(Nc2nc3c(ccc4c3ncn4C)s2)c1` [Example 42, (2,5-Dimethoxy-phenyl)-(6-methyl-6H-imidazo[4′,5′:3,4]-benzo[2,1-d]thiazol-2-yl)-amine.HCl], the Kd in assay [1] stood at 3400 nM; in assay [3] it was 370 nM; in assay [4], 1900 nM. Moreover, half-maximal inhibition in assay [2] (IC50) was put at 350 nM.
The corresponding values for `CC(C)Oc1ccccc1Nc1nc2c(ccc3c2ncn3C)s1` [Example 32, (2-Isopropoxy-phenyl)-(6-methyl-6H-imidazo[4′,5′:3,4]benzo[2,1-d]thiazol-2-yl)-amine.HCl] are 9200 nM, 540 nM, 3700 nM and 350 nM.
With `Cc1nc2c3nc(Nc4cc(C(N)=O)ccc4OC(C)C)sc3ccc2n1C` [Example 27, 3-(6,7-Dimethyl-6H-imidazo[4′,5′:3,4]benzo[2,1-d]thiazol-2-ylamino)-4-isopropoxy-benzamide.HCl], the Kd in assay [1] turned out to be 530 nM; in assay [3], 39 nM; in assay [4], 130 nM. This compound registered an IC50 in assay [2] of 58 nM.
On to `COc1ccccc1Nc1nc2c(ccc3[nH]c(N)nc32)s1` [Example 6, N^2-(2-Methoxy-phenyl)-6H-imidazo[4′,5′:3,4]benzo[2,1-d]thiazole-2,7-diamine], for which the Kd in assay [1] amounted to 11000 nM; in assay [3] it was 290 nM; in assay [4], 2400 nM. For the same compound, the IC50 in assay [2] came to 660 nM.
Regarding `CC(C)Oc1ccc(C(N)=O)cc1Nc1nc2c(ccc3[nH]cnc32)s1` [Example 29, 3-(6H-Imidazo[4′,5′:3,4]-benzo[2,1-d]thiazol-2-ylamino)-4-isopropoxy-benzamide.HCl], the figures for the Kd in assay [1], in assay [3] and in assay [4] were 1400 nM, 630 nM and 800 nM, respectively. The compound also showed an IC50 in assay [2] of 550 nM.
For `CCCn1c(C)nc2c3nc(Nc4cc(C(N)=O)ccc4OC(C)C)sc3ccc21` [Example 36, 4-Isopropoxy-3-(7-methyl-6-propyl-6H-imidazo[4′,5′:3,4]benzo[2,1-d]thiazol-2-ylamino)-benzamide.HCl], in that order: 2000 nM, 710 nM, 170 nM and 300 nM.
For `COc1ccccc1Nc1nc2c(s1)CCCc1nc(N)sc1-2` [Example 14, N^8-(2-Methoxy-phenyl)-5,6-dihydro-4H-1,7-dithia-3,9-diaza-cyclopenta[e]azulene-2,8-diamine.TFA], in that order: 20000 nM, 550 nM, 2400 nM and 1100 nM.
The corresponding values for `Cc1nc2c(ccc3sc(Nc4cc(C(N)=O)ccc4OC(C)C)nc32)[nH]1` [Example 19, 4-Isopropoxy-3-(7-methyl-6H-imidazo[4′,5′:3,4]benzo[2,1-d]thiazol-2-ylamino)-benzamide.HCl] are 2200 nM, 380 nM, 460 nM and 350 nM.
Consider `CCOc1ccccc1Nc1nc2c(ccc3c2ncn3C)s1` [Example 37, (2-Ethoxy-phenyl)-(6-methyl-6H-imidazo[4′,5′:3,4]benzo[2,1-d]thiazol-2-yl)-amine.HCl], for which the Kd is 5900 nM in assay [1], 360 nM in assay [3] and 2300 nM in assay [4]. The compound further showed a half-maximal inhibitory concentration (IC50) in assay [2] of 310 nM.
As for `Cn1cnc2c3nc(Nc4ccccc4OC(F)(F)F)sc3ccc21` [Example 58, (6-Methyl-6H-imidazo[4′,5′:3,4]-benzo[2,1-d]thiazol-2-yl)-(2-trifluoromethoxy-phenyl)-amine.HCl], the figures for the Kd in assay [1], in assay [3] and in assay [4] were 21000 nM, 930 nM and 2600 nM, respectively. Further, the IC50 in assay [2] came out at 380 nM.
Turning to `COc1ccccc1Nc1nc2c(ccc3[nH]c(NC(C)=O)nc32)s1` [Example 16, N-[2-(2-Methoxy-phenylamino)-6H-imidazo[4′,5′:3,4]benzo[2,1-d]thiazol-7-yl]-acetamide.TFA], the figures for the Kd in assay [1], in assay [3] and in assay [4] were 19000 nM, 990 nM and 5000 nM, respectively. The same compound displayed an IC50 in assay [2] of 890 nM.
The corresponding values for `CCn1c(C)nc2ccc3sc(Nc4cc(C(N)=O)ccc4OC(C)C)nc3c21` [Example 35, 3-(8-Ethyl-7-methyl-8H-imidazo[4′,5′:3,4]benzo[2,1-d]thiazol-2-ylamino)-4-isopropoxy-benzamide.HCl] are 430 nM, 150 nM, 55 nM and 53 nM.
For the compound `Cc1nc2ccc3sc(Nc4cc(C(N)=O)ccc4OC(C)C)nc3c2s1` [Example 13, 4-Isopropoxy-3-(2-methyl-benzo[1,2-d;3,4-d′]bisthiazol-7-ylamino)-benzamide.TFA], the values for the Kd in assay [1], in assay [3] and in assay [4] were 2200 nM, 390 nM and 230 nM, respectively. This compound also had an IC50 in assay [2] of 420 nM.
With `Cc1cc2ccc3sc(Nc4cc(C(N)=O)ccc4OC(C)C)nc3c2o1` [Example 38, 4-Isopropoxy-3-(7-methyl-8-oxa-3-thia-1-aza-as-indacen-2-ylamino)-benzamide.HCl], the Kd was 1400 nM in assay [1], 950 nM in assay [3] and 1000 nM in assay [4]. The compound also displayed an IC50 in assay [2] of 1500 nM.
